Results reported in paper doi:10.1101/2023.05.15.540887, “Comparative analysis of drug-like EP300/CREBBP acetyltransferase inhibitors” (bioRxiv, 2023).
Read-outs that look alike come from different tables or passages of the source.

Legend:
Test in all cases: NCI-60 growth inhibition (sulforhodamine B)
HOP-62 = assay type: cell-based, human
SNB-75 = assay type: cell-based, human; conditions: SNB-75 (CNS Cancer), negative log of Molar conc., LCONC -8
HOP-92 = assay type: cell-based, human; conditions: HOP-92 (Non-Small Cell Lung Cancer), negative log of Molar conc., LCONC -8
OVCAR-4 = assay type: cell-based, human; conditions: OVCAR-4 (Ovarian Cancer), negative log of Molar conc., LCONC -8
SK-MEL-5 = assay type: cell-based, human; conditions: SK-MEL-5 (Melanoma), negative log of Molar conc., LCONC -8
HCC-2998 = assay type: cell-based, human; conditions: HCC-2998 (Colon Cancer), negative log of Molar conc., LCONC -8
NCI-H460 = assay type: cell-based, human
MOLT-4 = assay type: cell-based, human; conditions: MOLT-4 (Leukemia), negative log of Molar conc., LCONC -8
NCI-H522 = assay type: cell-based, human; conditions: NCI-H522 (Non-Small Cell Lung Cancer), negative log of Molar conc., LCONC -8
U251 = assay type: cell-based, human; conditions: U251 (CNS Cancer), negative log of Molar conc., LCONC -8
NCI/ADR-RES = assay type: cell-based; conditions: Homo sapiens, LCONC -8
T-47D = assay type: cell-based; conditions: Homo sapiens, T47D
K-562 = assay type: cell-based, human; conditions: K-562 (Leukemia), negative log of Molar conc., LCONC -8
[1] = Homo sapiens, read-out: GI50 NLOGVALUE
[2] = Homo sapiens, read-out: IC50 NLOGVALUE
[3] = Homo sapiens, read-out: LC50 NLOGVALUE
[4] = Homo sapiens, read-out: GI50 NLOGVALUE (converted)
[5] = Homo sapiens, read-out: IC50 NLOGVALUE (converted)

C[C@H](CN[C@@H](C(=O)Nc1ccc(-c2cnn(C)c2)cn1)c1ccccc1)c1ccc(C#N)cc1 [CPI-1612]
TGI NLOGVALUE (HOP-62; HOP-62 (Non-Small Cell Lung Cancer), negative log of Molar conc., LCONC -8): 4
GI50 (HOP-62; Homo sapiens, HOP-62, read-out: GI50 AVGDATA (converted)): 1.95 µM
GI50 (HOP-62; Homo sapiens, HOP-62 (Non-Small Cell Lung Cancer), negative log of Molar conc., LCONC -8, read-out: GI50 NLOGVALUE (converted)): 1.91 µM
IC50 (HOP-62; Homo sapiens, HOP-62 (Non-Small Cell Lung Cancer), negative log of Molar conc., LCONC -8, read-out: IC50 NLOGVALUE): > 100 µM
CC50 (HOP-62; Homo sapiens, HOP-62 (Non-Small Cell Lung Cancer), negative log of Molar conc., LCONC -8, read-out: LC50 NLOGVALUE): > 100 µM
GI50 (SNB-75; [1]): > 100 µM
IC50 (SNB-75; [2]): > 100 µM
CC50 (SNB-75; [3]): > 100 µM
TGI NLOGVALUE (SNB-75): 4
TGI NLOGVALUE (HOP-92): 4
GI50 (HOP-92; [4]): 1.62 µM
IC50 (HOP-92; [2]): > 100 µM
CC50 (HOP-92; [3]): > 100 µM
GI50 (OVCAR-4; [4]): 2.04 µM
IC50 (OVCAR-4; [2]): > 100 µM
CC50 (OVCAR-4; [3]): > 100 µM
TGI NLOGVALUE (OVCAR-4): 4
GI50 (SK-MEL-5; [1]): < 0.01 µM
IC50 (SK-MEL-5; [5]): 0.0263 µM
CC50 (SK-MEL-5; [3]): > 100 µM
TGI NLOGVALUE (SK-MEL-5): 4.48
TGI NLOGVALUE (HCC-2998): 4
GI50 (HCC-2998; [4]): 0.11 µM
IC50 (HCC-2998; [5]): 33.9 µM
CC50 (HCC-2998; [3]): > 100 µM
GI50 (NCI-H460; Homo sapiens, NCI-H460, read-out: GI50 AVGDATA (converted)): 14.5 µM
GI50 (NCI-H460; Homo sapiens, NCI-H460 (Non-Small Cell Lung Cancer), negative log of Molar conc., LCONC -8, read-out: GI50 NLOGVALUE (converted)): 14.1 µM
IC50 (NCI-H460; Homo sapiens, NCI-H460 (Non-Small Cell Lung Cancer), negative log of Molar conc., LCONC -8, read-out: IC50 NLOGVALUE (converted)): 20.9 µM
CC50 (NCI-H460; Homo sapiens, NCI-H460 (Non-Small Cell Lung Cancer), negative log of Molar conc., LCONC -8, read-out: LC50 NLOGVALUE): > 100 µM
TGI NLOGVALUE (NCI-H460; NCI-H460 (Non-Small Cell Lung Cancer), negative log of Molar conc., LCONC -8): 4
GI50 (MOLT-4; [1]): < 0.01 µM
IC50 (MOLT-4; [5]): 0.0209 µM
TGI NLOGVALUE (MOLT-4): 4.53
GI50 (NCI-H522; [4]): 0.115 µM
IC50 (NCI-H522; [2]): > 100 µM
TGI NLOGVALUE (NCI-H522): 4
GI50 (U251; Homo sapiens, U-251, read-out: GI50 NLOGVALUE (converted)): 2.34 µM
IC50 (U251; Homo sapiens, U-251, read-out: IC50 NLOGVALUE (converted)): 28.8 µM
CC50 (U251; Homo sapiens, U-251, read-out: LC50 NLOGVALUE): > 100 µM
TGI NLOGVALUE (U251): 4
GI50 (NCI/ADR-RES; NCI/ADR-RES (Ovarian Cancer), negative log of Molar conc., read-out: GI50 NLOGVALUE (converted)): 6.46 µM
IC50 (NCI/ADR-RES; NCI/ADR-RES, Ovarian Cancer, negative log of Molar value, EXPID 2301NS84, read-out: IC50 NLOGVALUE (converted)): 29.5 µM
CC50 (NCI/ADR-RES; NCI/ADR-RES, Ovarian Cancer, negative log of Molar value, EXPID 2301NS84, read-out: LC50 NLOGVALUE): > 100 µM
GI50 (T-47D; T-47D, Breast Cancer, negative log of Molar value, LCONC -8, EXPID 2301NS84, read-out: GI50 NLOGVALUE (converted)): 0.0115 µM
IC50 (T-47D; T-47D, Breast Cancer, negative log of Molar value, LCONC -8, EXPID 2301NS84, read-out: IC50 NLOGVALUE (converted)): 42.7 µM
CC50 (T-47D; T-47D, Breast Cancer, negative log of Molar value, LCONC -8, EXPID 2301NS84, read-out: LC50 NLOGVALUE): > 100 µM
GI50 (T-47D; read-out: GI50 AVGDATA (converted)): 0.0117 µM
GI50 (K-562; Homo sapiens, K562, read-out: GI50 NLOGVALUE): < 0.01 µM
IC50 (K-562; Homo sapiens, K562, read-out: IC50 NLOGVALUE): < 0.01 µM
CC50 (K-562; Homo sapiens, K562, read-out: LC50 NLOGVALUE): > 100 µM
TGI NLOGVALUE (K-562): 4
